# In PubChem BioAssay AID330 (DTP/NCI, 2004):
# Several values for one entry are separate records, joined by “and”; a condition that tells them apart may be missing. Equal values may be shown once. Toxic doses and inconclusive results are not listed.
# Test system: P388 leukemia ip, CD2F1 mice, survival T/C
# Test: NCI In Vivo Anticancer Drug Screen. Data for tumor model P388 Leukemia (intraperitoneal) in CD2F1 (CDF1) mice
# Conditions: endpoint: median survival time, higher = longer survival
# Method in brief: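 Mice carrying the transplanted tumor received test compound or vehicle. Survival was recorded in each group, and the value is the treated-group measurement divided by that of the vehicle-treated control group.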
# [1] = dose: 60.0 mg/kg/injection, schedule: Q01DX005 (ip), vehicle: saline with Tween-80
# [2] = dose: 240.0 mg/kg/injection, schedule: Q01DX005 (ip), vehicle: saline with Tween-80
# [3] = dose: 50.0 mg/kg/injection, schedule: Q01DX005 (ip), vehicle: Klucel (hydroxypropylcellulose) (HPC)
# [4] = dose: 100.0 mg/kg/injection, schedule: Q01DX005 (ip), vehicle: Klucel (hydroxypropylcellulose) (HPC)
# [5] = dose: 200.0 mg/kg/injection, schedule: Q01DX005 (ip), vehicle: Klucel (hydroxypropylcellulose) (HPC)
# [6] = dose: 100.0 mg/kg/injection, schedule: Q04DX003 (ip), vehicle: saline
# [7] = dose: 200.0 mg/kg/injection, schedule: Q04DX003 (ip), vehicle: saline
# [8] = dose: 400.0 mg/kg/injection, schedule: Q04DX003 (ip), vehicle: saline
# [9] = dose: 50.0 mg/kg/injection, schedule: Q01DX009 (ip), vehicle: saline with Tween-80
# [10] = dose: 100.0 mg/kg/injection, schedule: Q01DX009 (ip), vehicle: saline with Tween-80
# [11] = dose: 200.0 mg/kg/injection, schedule: Q01DX009 (ip), vehicle: saline with Tween-80
# [12] = dose: 120.0 mg/kg/injection, schedule: Q01DX005 (ip), vehicle: saline with Tween-80
# [13] = dose: 50.0 mg/kg/injection, schedule: Q01DX009 (ip), vehicle: saline
# [14] = dose: 100.0 mg/kg/injection, schedule: Q01DX009 (ip), vehicle: saline
# [15] = dose: 200.0 mg/kg/injection, schedule: Q01DX009 (ip), vehicle: saline
# [16] = dose: 50.0 mg/kg/injection, schedule: Q01DX005 (ip), vehicle: saline
# [17] = dose: 12.5 mg/kg/injection, schedule: Q01DX009 (ip), vehicle: saline
# [18] = dose: 25.0 mg/kg/injection, schedule: Q01DX009 (ip), vehicle: saline
compound,measurement,setting,value
Cc1cc(C2c3ccccc3-c3ccccc32)cc(C)c1O,T/C,"dose: 1.87 mg/kg/injection, schedule: Q01DX005 (ip), vehicle: saline with Tween-80",90 % of control
same,T/C,"dose: 3.75 mg/kg/injection, schedule: Q01DX005 (ip), vehicle: saline with Tween-80",97 % of control
same,T/C,"dose: 7.5 mg/kg/injection, schedule: Q01DX005 (ip), vehicle: saline with Tween-80",91 % of control
same,T/C,"dose: 15.0 mg/kg/injection, schedule: Q01DX005 (ip), vehicle: saline with Tween-80",91 % of control
same,T/C,[1],90 % of control
same,T/C,[2],92 % of control
C=C1C(=O)O[C@@H]2C[C@@H](C)[C@@H]3CC(=O)OC[C@@]3(C)C[C@H]12,T/C,"dose: 50.0 mg/kg/injection, schedule: Q01DX001 (ip), vehicle: saline with Tween-80",100 % of control
same,T/C,"dose: 100.0 mg/kg/injection, schedule: Q01DX001 (ip), vehicle: saline with Tween-80",117 % of control
same,T/C,"dose: 200.0 mg/kg/injection, schedule: Q01DX001 (ip), vehicle: saline with Tween-80",118 % of control
CCOC(=O)c1ccc(OCC#N)cc1,T/C,[3],93 % of control
same,T/C,[4],102 % of control
same,T/C,[5],98 % of control
CC(=O)Nn1c(N)nc2ccccc21,T/C,[6],100 % of control
same,T/C,[7],109 % of control
same,T/C,[8],96 % of control
C/C=C(/C)c1cccc(OCc2ccccc2)c1OCc1ccccc1,T/C,[9],95 % of control
same,T/C,[10],90 % of control
same,T/C,[11],106 % of control
O=c1[nH]cnc2cccc(Cl)c12,T/C,[1],90 % of control
same,T/C,[12],90 % of control
same,T/C,[2],100 % of control
Cc1ccc(O)c(C2CC(=O)NC(NC#N)=N2)c1 (stereo not given),T/C,[13],103 % of control
same,T/C,[14],101 % of control
same,T/C,[15],101 % of control
O=C(C1CC2CCN1CC2)N1CCN(C(=O)C2CC3CCN2CC3)CC1 (stereo not given),T/C,"dose: 1.56 mg/kg/injection, schedule: Q01DX005 (ip), vehicle: saline",98 % of control
same,T/C,"dose: 3.12 mg/kg/injection, schedule: Q01DX005 (ip), vehicle: saline",102 % of control and 96 % of control
same,T/C,"dose: 6.25 mg/kg/injection, schedule: Q01DX005 (ip), vehicle: saline",97 % of control
same,T/C,[1],101 % of control
same,T/C,[12],101 % of control
CC(C)C(N)CO (stereo not given),T/C,[13],107 % of control
same,T/C,[14],106 % of control
same,T/C,[15],100 % of control
Nc1ccc(/C=C\c2nccc3ccccc23)cc1,T/C,"dose: 3.13 mg/kg/injection, schedule: Q01DX009 (ip), vehicle: saline with Tween-80",102 % of control
CC[N+](C)(CC)C[Si](C)(C)c1ccccc1,T/C,"dose: 12.5 mg/kg/injection, schedule: Q01DX005 (ip), vehicle: saline",98 % of control
same,T/C,"dose: 25.0 mg/kg/injection, schedule: Q01DX005 (ip), vehicle: saline",100 % of control
same,T/C,[16],105 % of control and 98 % of control
CC(=O)OC1CC23COC(=O)C4OC45CCO/C(=C/C/C=C\C(=O)OC4C[C@@H](OC2C=C1C)[C@@]1(CO1)[C@]43C)C5O (stereo not given in full),T/C,"dose: 0.32 mg/kg/injection, schedule: Q01DX009 (ip), vehicle: Klucel (hydroxypropylcellulose) (HPC)",100 % of control
same,T/C,"dose: 125.0 micrograms/kg/injection, schedule: Q01DX009 (ip), vehicle: Klucel (hydroxypropylcellulose) (HPC)",110 % of control
same,T/C,"dose: 250.0 micrograms/kg/injection, schedule: Q01DX009 (ip), vehicle: Klucel (hydroxypropylcellulose) (HPC)",118 % of control
same,T/C,"dose: 1000.0 micrograms/kg/injection, schedule: Q01DX009 (ip), vehicle: Klucel (hydroxypropylcellulose) (HPC)",152 % of control
C#CC1(NC(=O)c2ccccc2C(=O)Nc2cccc(C(F)(F)F)c2)CCCCC1,T/C,[9],97 % of control
same,T/C,[10],89 % of control
same,T/C,[11],89 % of control
CN(C)CCCNc1cccc2c1C(=O)c1c(NCCCN(C)C)cccc1C2=O,T/C,"dose: 3.75 mg/kg/injection, schedule: Q01DX009 (ip), vehicle: saline",99 % of control
same,T/C,"dose: 7.5 mg/kg/injection, schedule: Q01DX009 (ip), vehicle: saline",105 % of control
same,T/C,"dose: 12.5 mg/kg/injection, schedule: Q01DX009 (ip), vehicle: water",98 % of control
same,T/C,"dose: 15.0 mg/kg/injection, schedule: Q01DX009 (ip), vehicle: saline",106 % of control
same,T/C,"dose: 25.0 mg/kg/injection, schedule: Q01DX009 (ip), vehicle: water",95 % of control
same,T/C,"dose: 30.0 mg/kg/injection, schedule: Q01DX009 (ip), vehicle: saline",96 % of control
same,T/C,"dose: 60.0 mg/kg/injection, schedule: Q01DX009 (ip), vehicle: saline",90 % of control
O=C(C1=C(NCc2ccccc2)CCCC1)c1ccccc1,T/C,[17],97 % of control
same,T/C,[18],100 % of control
same,T/C,[13],104 % of control and 109 % of control
COc1c(C)cc(Cc2ccc3c(c2)OCO3)cc1C,T/C,[3],109 % of control
same,T/C,[4],109 % of control
same,T/C,[5],113 % of control
CC(C)(C)c1cc(C(=O)O)c2soc(=O)c2c1,T/C,"dose: 50.0 mg/kg/injection, schedule: Q01DX009 (ip), vehicle: Klucel (hydroxypropylcellulose) (HPC)",106 % of control
same,T/C,"dose: 100.0 mg/kg/injection, schedule: Q01DX009 (ip), vehicle: Klucel (hydroxypropylcellulose) (HPC)",109 % of control
same,T/C,"dose: 200.0 mg/kg/injection, schedule: Q01DX009 (ip), vehicle: Klucel (hydroxypropylcellulose) (HPC)",111 % of control
COc1cc(C2c3c(oc4ccccc4c3=O)Oc3oc4ccccc4c(=O)c32)cc(OC)c1OC,T/C,[1],86 % of control
same,T/C,[12],87 % of control
CN(C)CC(CN(C)C)C(=O)c1ccc(Oc2ccc(Cl)c(Cl)c2)cc1,T/C,"dose: 1.88 mg/kg/injection, schedule: Q01DX005 (ip), vehicle: saline",107 % of control
same,T/C,"dose: 3.75 mg/kg/injection, schedule: Q01DX005 (ip), vehicle: saline",109 % of control
same,T/C,"dose: 7.5 mg/kg/injection, schedule: Q01DX005 (ip), vehicle: saline",117 % of control
C[C@]12CCC[C@@H](O)[C@H]1O2,T/C,[6],104 % of control
same,T/C,[7],103 % of control
same,T/C,[8],109 % of control
CN(C)c1ncnc2nc(Cl)[nH]c12,T/C,"dose: 6.25 mg/kg/injection, schedule: Q01DX005 (ip), vehicle: Klucel (hydroxypropylcellulose) (HPC)",95 % of control
same,T/C,"dose: 12.5 mg/kg/injection, schedule: Q01DX005 (ip), vehicle: Klucel (hydroxypropylcellulose) (HPC)",112 % of control
same,T/C,"dose: 25.0 mg/kg/injection, schedule: Q01DX005 (ip), vehicle: Klucel (hydroxypropylcellulose) (HPC)",108 % of control
O=C(c1ccc(Cl)cc1)c1cc2c(ccc3ccccc32)oc1=O,T/C,"dose: 6.25 mg/kg/injection, schedule: Q01DX009 (ip), vehicle: saline",91 % of control
same,T/C,[17],95 % of control
same,T/C,[18],104 % of control
COC(=O)c1c(-c2ccccc2)c(-c2ccccc2)[nH]c(=O)c1C#N,T/C,[1],108 % of control
same,T/C,[12],100 % of control
same,T/C,[2],91 % of control
CCC1CCCC[N+]1(C)[B-](F)(F)F (stereo not given),T/C,[16],105 % of control
same,T/C,"dose: 100.0 mg/kg/injection, schedule: Q01DX005 (ip), vehicle: saline",107 % of control
CC1(C)SC(C)(c2ccco2)N(c2nccs2)C1=O (stereo not given),T/C,"dose: 60.0 mg/kg/injection, schedule: Q01DX005 (ip), vehicle: Klucel (hydroxypropylcellulose) (HPC)",104 % of control
same,T/C,"dose: 120.0 mg/kg/injection, schedule: Q01DX005 (ip), vehicle: Klucel (hydroxypropylcellulose) (HPC)",104 % of control
C=Cn1ccnc1C(O)(c1ccc(Cl)cc1)c1ccc(Cl)cc1,T/C,[9],92 % of control and 94 % of control
same,T/C,[10],100 % of control and 94 % of control
same,T/C,[11],94 % of control
same,T/C,"dose: 400.0 mg/kg/injection, schedule: Q01DX009 (ip), vehicle: saline with Tween-80",95 % of control and 98 % of control
CC(=O)c1ccc(-n2c(=O)n(-c3ccccc3)c3nc4cc(C)ccc4nc32)cc1,T/C,"dose: 50.0 mg/kg/injection, schedule: Q01DX005 (ip), vehicle: saline with Tween-80",90 % of control
same,T/C,"dose: 100.0 mg/kg/injection, schedule: Q01DX005 (ip), vehicle: saline with Tween-80",92 % of control
same,T/C,"dose: 200.0 mg/kg/injection, schedule: Q01DX005 (ip), vehicle: saline with Tween-80",98 % of control
COC(=O)N/N=C(/CC1(O)C(=O)Nc2ccc(Br)cc21)c1ccc(Cl)cc1Cl (stereo not given),T/C,"dose: 100.0 mg/kg/injection, schedule: Q04DX002 (ip), vehicle: saline with Tween-80",89 % of control
same,T/C,"dose: 200.0 mg/kg/injection, schedule: Q04DX002 (ip), vehicle: saline with Tween-80",95 % of control
same,T/C,"dose: 400.0 mg/kg/injection, schedule: Q04DX002 (ip), vehicle: saline with Tween-80",100 % of control
